Patent publication US6043274A, “Method of treating diabetic cardiomyopathy” (priority 1999, dated 2000)

Experiments:
[1] = system: aldose reductase (human recombinant, expressed in SF 9 cells); experiment: Aldose reductase assay, NADPH dependent reduction of glyceraldehyde; assay type: biochemical; conditions: glyceraldehyde as substrate, 37° C., plot only, no value given
Method: Aldose reductase assays were as described in Nishimura C., Yamaoka T., Mizutani M., Yamashita K., Akera T., Tanimoto T., Purification And Characterization Of The Recombinant Human Aldose Reductase Expressed In Baculovirus System, Biochem. Biophys. Acta, Jun. 24, 1991; 1078(2):171-8.
Briefly, Dimesna (0-20 μM) was incubated at 37° C. with aldose reductase (0.0016 units, human recombinant, expressed in SF 9 cells) and NADPH (0.15 mM) in sodium phosphate buffer (100 mM, pH 6.2). To initiate assays, glucose (10-150 mM) was added to reactions and the decrease in absorbance at 340 nm (oxidation of NADPH) was monitored. Assays were run in duplicate or triplicate. Slopes were calculated using Varian-Cary software package 2.0 and averaged. In all cases errors were 4% or less. Lineweaver Burk analysis (Enzyme Kinetics, version 1.61) was used to calculate inhibition constants.
Aldose reductase assays were as described above. Dimesna (0-30 mM) was evaluated for its effect on the NADPH dependent reduction of glyceraldehyde (0.050-6 mM) to aldose at 37° C. Assays were run in duplicate or triplicate. Slopes were calculated using Varian-Cary software package 2.0 and averaged. In all cases errors were 4% or less. Lineweaver Burk analysis (Enzyme Kinetics, version 1.61) was used to calculate inhibition constants.

mice = conditions: intravenously; cited from earlier work
dogs = conditions: intravenously; cited from earlier work
diabetic retinopathy = conditions: humans, mainly in the 1980s; cited from earlier work

Structure (SMILES): O=S(=O)([O-])CCSSCCS(=O)(=O)[O-].[Na+].[Na+] [Dimesna, disodium 2,2'-dithiobis ethane sulfonate]
- Inhibition of Aldose Reductase (Lineweaver Burk plot) [1]: Inhibition
- dose administered with no adverse effects (mice): > 3750 mg/kg
- dose administered with no adverse effects (dogs): > 3750 mg/kg

Structure (SMILES): O=C1NC(=O)[C@@]2(CCOc3ccc(F)cc32)N1 [sorbinil]
- efficacy in slowing the progress of diabetic retinopathy (diabetic retinopathy): some efficacy
- tolerability in patients (diabetic retinopathy): not well tolerated
